According to patent publication US4997850A, “Treating agent for osteroarthritis” (Kureha Kagaku Kogyo Kabushiki Kaisha, priority 1989, dated 1991):
Where a name gives a salt, the structure may show the parent alone.

Assays:
[1] = Acute toxicity (LD50) of further compounds, determined in the same manner as ACP; type: in vivo; details: same manner as ACP (oral or subcutaneous, mice and rats)
Procedure: For oral administration, a suspension of ACP dispersed in an aqueous solution of 0.5% methylcellulose and 0.4% Tween 80 (nonionic surfactant, manufactured by TOKYO KASEI, Co., Ltd.) was prepared and administered to the animals via a stomach sonde. For subcutaneous administration, a suspension of ACP dispersed in an aqueous physiological saline solution containing 0.5% of carboxymethyl cellulose sodium (hereinafter referred to as "CMC") was prepared and injected to the animals with a syringe.
Further, the acute toxicities (LD50) of […]

[2] = tested on: proteoglycan (PG) release under IL-1α; experiment: Proteoglycan (PG) release from prelabelled cultured cartilage matrix with addition of IL-1α; type: cell-based; details: for inhibiting activity on PG release (further compounds): concentration not given; for inhibition of PG release under IL-1α: 20 units of IL-1α, 10 μM
Procedure: Further, to a cultured cartilage matrix, in which PG is prelabelled in advance with 1 μCi of Na2^35 SO4, 20 units of IL-1α was added to each group including control group and 10 μM of PAL, 100 μM of PAL or 10 μM of ACP was added to each test group and studied the effect of each compound to the PG release from the cells.

[3] = tested on: IL-1 release from human monocyte; experiment: Inhibition of IL-1 (IL-1α and IL-1β) release from human monocyte; type: cell-based; details: 3.3 μM; LPS 10 μg/ml, 42 hours
Procedure: Monocyte were isolated from human venous blood by density-gradient centrifugation using a Ficoll-paque solution and obtained the cells having a purity of not less than 95% by purifying with a monocyte-separating plate. After dispersing the cells in a medium, RPMI 1640, containing 10% of FBS, the monocyte were inoculated in a culture dish in a ratio of 10^6 cells/3 ml/well and cultured under an atmosphere containing 5% CO2 at 37° C. for 30 minutes. Then, each 15 μl of DMSO solution of one of ACP, PAL and PAC was added to each well (a final DMSO concentration of 0.5%) and 30 minutes later a lipopolysaccharide (hereinafter referred to as "LPS"), a substance to stimulate IL-1 production, was added at a final LPS concentration of 10 μg/ml and they were cultured for 42 hours. Then, the reacted culture medium was recovered and accompanied cells with the medium were separated by centrifugation and obtained the supernatant free of cell. IL-1α and IL-1β released from the cells were measured by ELISA method in the same manner as in item (i) above.

[4] = Acute toxicity (LD50) of PAC in male mice; type: in vivo; details: intraperitoneal, level relative to PAC (not less than 400 mg/kg)

| Structure (SMILES) | acute toxicities (LD50), compared with ACP [1] | inhibiting activity on PG release (further compounds) [2] | inhibition of IL-1 release [3] | inhibition of PG release under IL-1α [2] | LD50 value, compared with PAC [4] |
| --- | --- | --- | --- | --- | --- |
| O=Cc1ccc(OC(=O)c2ccccc2)c(OC(=O)c2ccccc2)c1 [3,4-dibenzoyloxybenzaldehyde] | approximately same values | same effects |  |  |  |
| CC(=O)Oc1ccc(C(=O)[O-])cc1OC(C)=O.[Na+] [3,4-diacetoxybenzoic acid sodium salt] | approximately same values | same effects |  |  |  |
| CCCCCCCCCCCCCCCCCC(=O)Oc1ccc(C=O)cc1OC(=O)CCCCCCCCCCCCCCCCC [3,4-di-n-octadecanoyloxybenzaldehyde] | approximately same values | same effects |  |  |  |
| CC(=O)Oc1ccc(C=O)cc1OC(C)=O [3,4-diacetoxybenzaldehyde] | approximately same values | same effects |  |  |  |
| CCCCCCCCCCCCCCCCCC(=O)Oc1ccc(C(OC(C)=O)OC(C)=O)cc1OC(=O)CCCCCCCCCCCCCCCCC [3,4-di-n-octadecanoyloxybenzylidene diacetate] | approximately same values | same effects |  |  |  |
| O=C(Oc1ccc(C(OC(=O)c2ccccc2)OC(=O)c2ccccc2)cc1OC(=O)c1ccccc1)c1ccccc1 [3,4-dibenzoyloxybenzylidene dibenzoate] | approximately same values |  | significantly inhibit | inhibited the release amount of PG |  |
| CCCCCCCCCCCC(=O)Oc1ccc(C(OC(=O)CCCCCCCCCCC)OC(=O)CCCCCCCCCCC)cc1OC(=O)CCCCCCCCCCC [3,4-di-n-dodecanoyloxybenzylidene di-n-dodecanoate] | approximately same values |  | significantly inhibit | inhibited the release amount of PG |  |
| CCCCCCCCCCCCCCCC(=O)Oc1ccc(C(OC(=O)CCCCCCCCCCCCCCC)OC(=O)CCCCCCCCCCCCCCC)cc1OC(=O)CCCCCCCCCCCCCCC [3,4-di-n-hexadecanoyloxybenzylidene di-n-hexadecanoate] | approximately same values | same effects |  |  |  |
| CCCCCCCCCCCCCCCCCC(=O)Oc1ccc(C(OC(=O)CCCCCCCCCCCCCCCCC)OC(=O)CCCCCCCCCCCCCCCCC)cc1OC(=O)CCCCCCCCCCCCCCCCC [3,4-di-n-octadecanoyloxybenzylidene di-n-octadecanoate] | approximately same values |  | significantly inhibit | inhibited the release amount of PG |  |
| CC(=O)Oc1ccc(C(=O)O)cc1OC(C)=O [3,4-diacetoxybenzoic acid] | approximately same values | same effects |  |  |  |
| CCCCCCCCCCCCCCCCCC(=O)OC(OC(=O)CCCCCCCCCCCCCCCCC)c1ccc(OC(C)=O)c(OC(C)=O)c1 [3,4-diacetoxybenzylidene di-n-octadecanoate] | approximately same values | same effects |  |  |  |
| CCCC(=O)Oc1ccc(C(OC(=O)CCC)OC(=O)CCC)cc1OC(=O)CCC [3,4-di-n-butyryloxybenzylidene di-n-butyrate] | approximately same values | same effects |  |  |  |
| CCC(=O)Oc1ccc(C(OC(=O)CC)OC(=O)CC)cc1OC(=O)CC [3,4-di-n-propionyloxybenzylidene di-n-propionate] | approximately same values |  | significantly inhibit | inhibited the release amount of PG |  |
| O=C(O)c1ccc(O)c(O)c1 [sodium salt of PAC] |  |  |  |  | same level of LD50 value |
| CCCCCCCCCCCCCC(=O)Oc1ccc(C(OC(=O)CCCCCCCCCCCCC)OC(=O)CCCCCCCCCCCCC)cc1OC(=O)CCCCCCCCCCCCC [3,4-di-n-tetradecanoyloxybenzylidene di-n-tetradecanoate] | approximately same values | same effects |  |  |  |
